Assays:
IMR-32 cells [1] = assay: Metabolic activity assay (MTS); type: cell-based, human
Method: (§1) In vitro hypoxia was induced in the cell cultures by using our recently described system with minor modifications (Huang et al., 2013b; Weber et al., 2015; Zitta et al., 2010). Enzyme stock solutions (100×) of catalase and glucose oxidase (both from Sigma-Aldrich) were prepared in cell culture medium (DMEM/F12, 1% FCS; final concentration: 120 U/ml and 2 U/ml respectively; Sigma-Aldrich) leading to a decrease of partial pressure of oxygen (pO2) below 10 mmHg within 5 minutes. Hypoxic conditions were confirmed by using a tissue oxygen pressure monitor (LICOX® CMP Oxygen Catheter; Integra, Plainsboro, USA). After 7 hours of hypoxia, the cells were washed twice with PBS (PAA) and fresh normoxic medium supplemented with solvent (citrate buffer 1%) or 2-IB (10, 30, 50, 100 and 300 ng/mL) was added to the cells. Investigations of cell damage, metabolic activity, ROS, hydrogen peroxide, nitrite/nitrate production, erkl/2, akt and stat5 phosphorylation as well as cell stress protein expression were performed with cell culture media or cell protein (FIG. 1).
Metabolically active cells were evaluated by using a colorimetric kit (CELLTITER96® AQueous One Solution Reagent G3580 Promega Madison, Wis., USA). Samples were prepared concerning to the manufacturer's protocol. Briefly, 4×10^4 cells were seeded per well in a 96-well plate with 100 μl DMEM/F12 supplemented with 10% FCS per well. After 2 days in culture, normoxia or hypoxia was applied for 7 hours followed by the addition of 2-IB or the respective solvent control (citrate 1%) for 17 hours. After that, 20 μl of […] reagent were added to each well for 2.5 hours at 37° C. Metabolic active cells generate a colored product, the absorbance of which was measured at 490 nm using an ELISA reader (Tecan, Crailsheim, Austria) in combination with the Magellan software v1.1.

akt = assay: Western blotting, akt phosphorylation; type: cell-based, human
Method: as §1, with “Investigations of cell damage, metabolic activity, ROS, hydrogen peroxide, nitrite/nitrate production, erkl/2, akt and stat5 phosphorylation as well as cell stress protein expression were performed with cell culture media or cell protein (FIG. 1).” left out
(§2) Protein extraction was performed using RIPA buffer containing 150 mM sodium chloride, 1% NP-40, 1% sodium deoxycholate, 0.1% sodium dodecyl sulfate (SDS) and 50 mM Tris-HCl buffer (pH 7.6; all from Sigma-Aldrich) or alternatively M-PER buffer (Mammalian Protein Extraction Reagent; Pierce, Ill., USA). Protein concentrations were determined with Roti®-Quant assays (Carl Roth) and samples were stored at −20° C. until use. […] Images were taken and densitometrically analyzed with the software ImageJ (v1.41o, NIH).

IMR-32 cells [2] = assay: Reactive oxygen species (ROS) measurement, H2DCFDA; type: cell-based, human
Method: as §1
For reactive oxygen species (ROS) measurements, 4×10^4 cells were seeded per well and cultured for 3 days in black walled 96-well plates (Greiner Bio-One, Frickenhausen, Germany). After hypoxia, cells were washed with pre-warmed PBS and cultured in a phenol red-free DMEM/F12 medium (Gibco®-invitrogen, NY, USA) with 1% fetal calf serum (PAA) for 17 hours, supplemented with solvent (citrate 1%) or 2-IB (10, 30, 50, 100, 300 ng/ml). Intracellular ROS were measured by adding 2′7′-dichlorodihydrofluorescein diacetate (H2DCFDA, Sigma-Aldrich) to a final concentration of 10 μM which is oxidized to fluorescent dichlorofluorescein (DCF) by intracellular ROS. DCF-loaded cells were kept in the dark at 37° C. and fluorescence was evaluated at an excitation wavelength of 485 nm and emission wavelength of 535 nm using an ELISA reader (Genios F L; Tecan, Crailsheim, Austria). Fluorescence data were acquired at time points 0 (T0) and 30 minutes (T30) and results were calculated as the increment of fluorescence (%) over time [(T30-T0)/T0×100]. Hydrogen peroxide was measured in the culture medium with a Quanti-Chrom™ Peroxide Assay Kit (Bio-Assay Systems, Hayward, USA), which utilizes the chromogenic Fe3+-xylenol orange reaction, in which a purple complex is formed when Fe2+ provided in the reagent is oxidized to Fe3+ by the hydrogen peroxide present in the sample. Briefly, 100 μl of detection reagent were added to 20 μl of culture medium and measurements were performed based on the manufacturer's protocol. Absorbance of the colorimetric samples and standards was measured at 620 nm using an ELISA reader (Tecan, Crailsheim, Germany).

erkl/2 = assay: Western blotting, erkl/2 phosphorylation; type: cell-based, human; details: 30 ng/ml 2-IB
Method: as §1, with “Investigations of cell damage, metabolic activity, ROS, hydrogen peroxide, nitrite/nitrate production, erkl/2, akt and stat5 phosphorylation as well as cell stress protein expression were performed with cell culture media or cell protein (FIG. 1).” left out
as §2

[3] = test system: piglet model of perinatal global hypoxia-ischemia (HI); details: Peeters-Scholte et al., 2002; cited from earlier work
IMR-32 cells [4] = assay: LDH cytotoxicity assay, hypoxia-induced cell damage; type: cell-based, human; details: 10 ng/ml 2-IB, 17 hours after hypoxia
stat5 = assay: Western blotting, stat5 phosphorylation; type: cell-based, human; details: 30 ng/ml 2-IB
Method: as §1, with “Investigations of cell damage, metabolic activity, ROS, hydrogen peroxide, nitrite/nitrate production, erkl/2, akt and stat5 phosphorylation as well as cell stress protein expression were performed with cell culture media or cell protein (FIG. 1).” left out
as §2

N=C1N[C@H]2[C@H](CS[C@H]2CCCCC(=O)O)N1 [2-IB, 2-iminobiotin]
metabolic activity (IMR-32 cells [1]; 10 ng/ml 2-IB, hypoxia): 0.44±0.10 a.u.
metabolic activity (IMR-32 cells [1]; 10 ng/ml 2-IB, normoxia, 17 hours after hypoxia): 0.44±0.08 a.u.
metabolic activity (IMR-32 cells [1]; 30 ng/ml 2-IB, hypoxia): 0.45±0.09 a.u.
metabolic activity (IMR-32 cells [1]; 30 ng/ml 2-IB, normoxia): 0.49±0.08 a.u.
metabolic activity (IMR-32 cells [1]; 50 ng/ml 2-IB, hypoxia): 0.41±0.06 a.u.
metabolic activity (IMR-32 cells [1]; 50 ng/ml 2-IB, normoxia): 0.50±0.08 a.u.
metabolic activity (IMR-32 cells [1]; 100 ng/ml 2-IB, hypoxia): 0.33±0.06 a.u.
metabolic activity (IMR-32 cells [1]; 100 ng/ml 2-IB, normoxia): 0.58±0.09 a.u.
metabolic activity (IMR-32 cells [1]; 300 ng/ml 2-IB, hypoxia): 0.33±0.07 a.u.
metabolic activity (IMR-32 cells [1]; 300 ng/ml 2-IB, normoxia): 0.63±0.09 a.u.
hypoxia-induced reduction of metabolic activity, most efficient concentrations (IMR-32 cells [1]; 10-300 ng/ml tested, P<0.01 vs. control): most efficiently counteracted by 10, 30 and 50 ng/ml 2-IB
phospho akt/akt (akt; hypoxia plus 30 ng/ml 2-IB): 0.60±0.33
phospho akt/akt (akt; normoxia plus 30 ng/ml 2-IB): 0.78±0.54
ROS increase (T30-T0)/T0×100 (IMR-32 cells [2]; 30 ng/ml 2-IB, hypoxia): 222.00±52.57%
ROS increase (T30-T0)/T0×100 (IMR-32 cells [2]; 30 ng/ml 2-IB, normoxia): 118.93±20.09%
ROS increase (T30-T0)/T0×100 (IMR-32 cells [2]; 50 ng/ml 2-IB, hypoxia): 233.38±53.94%
ROS increase (T30-T0)/T0×100 (IMR-32 cells [2]; 50 ng/ml 2-IB, normoxia): 154.85±30.83%
ROS increase (T30-T0)/T0×100 (IMR-32 cells [2]; 100 ng/ml 2-IB, hypoxia): 246.71±58.94%
ROS increase (T30-T0)/T0×100 (IMR-32 cells [2]; 100 ng/ml 2-IB, normoxia): 128.84±21.94%
ROS increase (T30-T0)/T0×100 (IMR-32 cells [2]; 300 ng/ml 2-IB, hypoxia): 311.57±79.02%
ROS increase (T30-T0)/T0×100 (IMR-32 cells [2]; 300 ng/ml 2-IB, normoxia): 141.20±25.35%
hypoxia-induced generation of ROS, most efficient concentration (IMR-32 cells [2]; 10-300 ng/ml tested): most efficiently attenuated with 50 ng/ml 2-IB
phosphorylation of erkl/2 (erkl/2): did not influence
neurological damage [3]: reduces the amount of neurological damage
LDH/total LDH (IMR-32 cells [4]; hypoxia): 0.15±0.03
LDH/total LDH (IMR-32 cells [4]; normoxia): 0.09±0.02
phosphorylation of stat5 (stat5): did not influence
